Laboratory results: ChEMBL document CHEMBL3751815, “Sulfonamides incorporating heteropolycyclic scaffolds show potent inhibitory action against carbonic anhydrase isoforms I, II, IX and XII” (Bioorg Med Chem, 2016)

These compounds were tested against Carbonic anhydrase 9 (Homo sapiens, UniProt Q16790) (assay: Inhibition of recombinant human carbonic anhydrase 9 preincubated for 15 mins by stopped-flow CO2 hydration assay).
Compound `CN(CC(=O)O)c1ccc2c(c1)-c1cccnc1SC2` has a Ki of 67.8 nM. With `Cc1ccc2c(c1)NCc1cn(-c3ccc(S(N)(=O)=O)cc3)nc1-2` the Ki was 7.7 nM. `NS(=O)(=O)c1ccc(Nc2ncc3c(n2)-c2ccccc2SC3)cc1` showed a Ki of 7 nM. Work on `NS(=O)(=O)c1ccc(-n2cc3c(n2)-c2ccccc2NC3)cc1` yielded a Ki of 6.3 nM. `NS(=O)(=O)c1ccc(-n2cc3c(n2)-c2ccc(Cl)cc2SC3)cc1` was tested, and the Ki was 6.1 nM. Work on `COc1ccc2c(c1)SCc1cnc(Nc3ccc(S(N)(=O)=O)cc3)nc1-2` yielded a Ki of 22.5 nM. Compound `COc1ccc2c(c1)SCc1ccc(N(C)CC(=O)O)cc1-2` has a Ki of 40.8 nM. For `COc1ccc2c(c1)SCc1ccc(NCC(=O)O)cc1-2`, the Ki was 54.1 nM. `COc1ccc2c(c1)SCc1cn(-c3ccc(S(N)(=O)=O)cc3)nc1-2` was tested, and the Ki was 7.4 nM. Work on `NS(=O)(=O)c1ccc(Nc2ncc3c(n2)-c2cccnc2SC3)cc1` yielded a Ki of 27.6 nM. `NS(=O)(=O)c1ccc(Nc2ncc3c(n2)-c2ccc(Cl)cc2SC3)cc1` was tested, and the Ki was 8.7 nM. Work on `Cc1ccc2c(n1)SCc1ccc(N(C)CC(=O)O)cc1-2` yielded a Ki of 92.7 nM.
